These results are taken from patent US7381824B2 (Agouron Pharmaceuticals, Inc., priority 2003, dated 2008).

Usually Ki stands for a measure of affinity in units of concentration, obtained from inhibition or displacement.

This assay deals with T1, human vascular endothelial growth factor receptor 2 (VEGF-R2) (Homo sapiens, UniProt P35968, DEL940-989/E990V).
T1 construct: VEGF-R2D50 contains residues 806-939 and 990-1171; made in house; host or cells: baculovirus/insect cell system
T1 sequence (P35968 with tags, fused parts or gaps DEL940-989/E990V limits assumed): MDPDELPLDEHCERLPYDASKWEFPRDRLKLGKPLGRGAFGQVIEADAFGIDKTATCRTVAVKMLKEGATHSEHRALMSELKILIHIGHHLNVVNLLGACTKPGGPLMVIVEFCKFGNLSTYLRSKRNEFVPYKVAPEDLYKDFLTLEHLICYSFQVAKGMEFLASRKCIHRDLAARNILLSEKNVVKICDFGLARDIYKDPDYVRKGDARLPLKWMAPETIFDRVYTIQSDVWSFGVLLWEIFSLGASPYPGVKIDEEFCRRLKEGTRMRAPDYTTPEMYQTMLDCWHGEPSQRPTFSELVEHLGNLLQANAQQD
In words: VEGF-R2 coupled spectrophotometric assay (FLVK, unphosphorylated VEGF-R2D50). Format: biochemical. The conditions noted are these: unphosphorylated VEGF-R2D50 (FLVK). From the text: This construct determines the ability of a test compound to inhibit tyrosine kinase activity. A construct (VEGF-R2D50) of the cytosolic domain of human vascular endothelial growth factor receptor 2 (VEGF-R2) lacking the 50 central residues of the 68 residues of the kinase insert domain was expressed in a baculovirus/insect cell system. Of the 1356 residues of full-length VEGF-R2, VEGF-R2D50 contains residues 806-939 and 990-1171, and also one point mutation (E990V) within the kinase insert domain relative to wild-type VEGF-R2. Autophosphorylation of the purified construct was performed by incubation of the enzyme at a concentration of […] in the presence of 3 mM ATP and 40 mM MgCl2 in 100 mM HEPES, pH 7.5, containing 5% glycerol and 5 mM DTT, at 4° C. for 2 h. […] See Parast et al., Biochemistry, 37, 16788-16801 (1998).
VEGF-R2 Assay: Coupled Spectrophotometric (FLVK-P) Assay
The production of ADP from ATP that accompanies phosphoryl transfer was coupled to oxidation of NADH using phosphoenolpyruvate (PEP) and a system having pyruvate kinase (PK) and lactic dehydrogenase (LDH). The oxidation of NADH was monitored by following the decrease of absorbance at 340 nm (e340=6.22 cm^−1 mM^−1) using a Beckman DU 650 spectrophotometer. Assay conditions for phosphorylated VEGF-R2D50 (indicated as FLVK-P in the tables below) were the following: 1 mM PEP; […] NADH; 50 units of LDH/mL; 20 units of PK/mL; 5 mM DTT; 5.1 mM poly(E4Y1); 1 mM ATP; and 25 mM MgCl2 in 200 mM HEPES, pH 7.5. Assay conditions for unphosphorylated VEGF-R2D50 (indicated as FLVK in the tables) were the following: 1 mM PEP; […] NADH; 50 units of LDH/mL; 20 units of PK/mL; 5 mM DTT; 20 mM poly(E4Y1); 3 mM ATP; and 60 mM MgCl2 and 2 mM MnCl2 in 200 mM HEPES, pH 7.5. Assays were initiated with 5 to 40 nM of enzyme. K1 values were determined by measuring enzyme activity in the presence of varying concentrations of test compounds. The percent inhibition at 50 nM (% inhibition @ 50 nM) was determined by linear least-squares regression analysis of absorbance as a function of time. The binding inhibitions were fitted to equation as described by Morrison. The data were analyzed using Enzyme Kinetic and Kaleidagraph software.
With `CNC(=O)c1c(C)oc2cc(Oc3ccnc4cc(-c5ccncc5)ccc34)ccc12` [Example 7, N-2-dimethyl-6-[(7-pyridin-4-ylquinolin-4-yl)oxy]-1-benzofuran-3-carboxamide], the inhibitory constant (Ki) is < 1 nM. Next, `CNC(=O)n1c(C)cc2cc(Nc3ccnc4cc(-c5cccnc5)ccc34)ccc21` [Example 12, N,2-dimethyl-5-[(7-pyridin-3-ylquinolin-4-yl)amino]-1H-indole-1-carboxamide]: > 10 nM; `CNC(=O)c1c(C)oc2cc(Oc3ccnc4cc(C(=O)N5CCC[C@H]5COC)ccc34)ccc12` [Example 15, 6-[(7-([(2S)-2-(methoxymethyl)pyrrolidin-1-yl]carbonyl}quinolin-4-yl)oxy]-N,2-dimethyl-1-benzofuran-3-carboxamide]: 1 to 10 nM.

As for `CNC(=O)c1c(C)sc2cc(Oc3ccnc4cc(C(=O)N5CCC[C@H]5COC)ccc34)ccc12` [Example 16, 6-[(7-{[(2S)-2-(methoxymethyl)pyrrolidin-1-yl]carbonyl)quinolin-4-yl)oxy]-N,2-dimethyl-1-benzothiophene-3-carboxamide], the Ki was > 10 nM. Next, `CNC(=O)c1c(C)sc2cc(Oc3ccnc4cc(-c5ncccn5)ccc34)ccc12` [Example 18, N,2-dimethyl-6-[(7-pyrimidin-2-ylquinolin-4-yl)oxy]-1-benzothiophene-3-carboxamide]: > 10 nM. To `CNC(=O)c1c(C)sc2cc(Oc3ccnc4cc(Br)ccc34)ccc12` [Example 20, 6-[(7-bromoquinolin-4-yl)oxy]-N,2-dimethy-1-benzothiophene-3-carboxamide] belongs > 10 nM.

For the compound `CNC(=O)c1c(C)sc2cc(Oc3ccnc4ccc(-c5ccncc5)cc34)ccc12` [Example 23, N,2-dimethyl-6-[(6-pyridin-4-ylquinolin-4-yl)oxy]-1-benzothiophene-3-carboxamide], the Ki was > 10 nM. Next, `CNC(=O)c1c(C)oc2cc(Oc3ccnc4ccc(-c5ccncc5)cc34)ccc12` [Example 24, N,2-dimethyl-6-[(6-pyridin-4-ylquinolin-4-yl)oxy]-1-benzofuran-3-carboxamide]: 1 to 10 nM; `CNC(=O)c1c(C)sc2cc(Oc3ccnc4ccc(O)cc34)ccc12` [Example 27, 6-[(6-hydroxyquinolin-4-yl)oxy]-N,2-dimethyl-1-benzothiophene-3-carboxamide]: > 10 nM. Next, `CNC(=O)c1c(C)oc2cc(Oc3ccnc4cc(-c5nccs5)ccc34)ccc12` [Example 30]: < 1 nM; `CNC(=O)c1c(C)oc2cc(Oc3ccnc4cc(OCc5ccccn5)ccc34)ccc12` [Example 33]: 1 to 10 nM; `COc1ccc2c(Oc3ccc4c(C(=O)NCCN(C)C)c(C)sc4c3)ccnc2c1` [Example 49, N-[2-(dimethylamino)ethyl]-6-[(7-methoxyquinolin-4-yl)oxy]-2-methyl-1-benzothiophene-3-carboxamide]: > 10 nM. Next, `COc1ccc2c(Oc3ccc4c(C(=O)NCc5cccnc5)c(C)sc4c3)ccnc2c1` [Example 54, 6-[(7-methoxyquinolin-4-yl)oxy]-2-methyl-N-(pyridin-3-ylmethyl)-1-benzothiophene-3-carboxamide]: > 10 nM. As for `CCCNC(=O)c1c(C)sc2cc(Oc3ccnc4cc(O)ccc34)ccc12` [Example 55, 6-[(7-hydroxyquinolin-4-yl)oxy]-2-methyl-N-propyl-1-benzothiophene-3-carboxamide], the Ki was > 10 nM. Next, `Cc1sc2cc(Oc3ccnc4cc(O)ccc34)ccc2c1C(=O)NC1CCCC1` [Example 56, N-cyclopentyl-6-[(7-hydroxyquinolin-4-yl)oxy]-2-methyl-1-benzothiophene-3-carboxamide]: > 10 nM. To `Cc1sc2cc(Oc3ccnc4cc(O)ccc34)ccc2c1C(=O)NCCN(C)C` [Example 57, N-[2-(dimethylamino)ethyl]-6-[(7-hydroxyquinolin-4-yl)oxy]-2-methyl-1-benzothiophene-3-carboxamide] belongs > 10 nM. Next, `CNC(=O)c1c(C)sc2cc(Oc3ccnc4cc(C(F)(F)F)ccc34)ccc12` [Example 60, N,2-dimethyl-6-{[7-(trifluoromethyl)quinolin-4-yl]oxy}-1-benzothiophene-3-carboxamide]: > 10 nM; `CNC(=O)c1c(C)oc2cc(Oc3ccnc4cc(C(F)(F)F)ccc34)ccc12` [Example 61, N,2-dimethyl-6-{[7-(trifluoromethyl)quinolin-4-yl]oxy}-1-benzofuran-3-carboxamide]: > 10 nM. Regarding `COc1ccc2c(Oc3ccc4c(C(=O)NC(C)C)c(C)sc4c3)ccnc2c1` [Example 71, N-isopropyl-6-[(7-methoxyquinolin-4-yl)oxy]-2-methyl-1-benzothiophene-3-carboxamide], the inhibition constant (Ki) was 1 to 10 nM. To `CNC(=O)c1c(C)n(C)c2cc(Oc3ccnc4cc(OC)ccc34)ccc12` [Example 75, [(7-methoxyquinolin-4-yl)oxy]-N,1,2-trimethyl-1H-indole-3-carboxamide] belongs > 10 nM; to `CNC(=O)c1c(C)n(C)c2cc(Oc3ccnc4cc(O)ccc34)ccc12` [Example 76], > 10 nM; to `CNC(=O)c1c(C)n(C)c2cc(Oc3ccnc4cc(OCCN5CCOCC5)ccc34)ccc12` [Example 77, N,1,2-trimethyl-6-{[7-(2-morpholin-4-ylethoxy)quinolin-4-yl]oxy}-1H-indole-3-carboxamide], > 10 nM. To `CNC(=O)c1c(C)n(C)c2cc(Oc3ccnc4cc(OCCN5CCCC5)ccc34)ccc12` [Example 78, N,1,2-trimethyl-6-{[7-(2-pyrrolidin-1-ylethoxy)quinolin-4-yl]oxy}-1H-indole-3-carboxamide] belongs > 10 nM. To `CNC(=O)c1c(C)n(C)c2cc(Oc3ccnc4cc(OCCN5CCCCC5)ccc34)ccc12` [Example 79, N,1,2-trimethyl-6-{[7-(2-piperidin-1-ylethoxy)quinolin-4-yl]oxy}-1H-indole-3-carboxamide] belongs > 10 nM. As to `COc1ccc2c(Oc3ccc4c(C(=O)NCC(C)O)c(C)sc4c3)ccnc2c1` (centres unmarked) [Example 80, N(2-hydroxypropyl)-6-[(7-methoxyquinolin-4-yl)oxy]-2-methyl-1-benzothiophene3-carboxamide], the Ki was > 10 nM.

On to `CCC(O)CNC(=O)c1c(C)sc2cc(Oc3ccnc4cc(OC)ccc34)ccc12` (centres unmarked) [Example 81, N-(2-hydroxybutyl)-6-[(7-methoxyquinolin-4-yl)oxy]-2-methyl-1-benzothiophene-3-carboxamide], for which the inhibition constant (Ki) was > 10 nM. To `COc1ccc2c(Oc3ccc4c(C(=O)NCCC(C)O)c(C)sc4c3)ccnc2c1` (centres unmarked) [Example 82, N-(3-hydroxybutyl)-6-[(7-methoxyquinolin-4-yl)oxy]-2-methyl-1-benzothiophene-3-carboxamide] belongs > 10 nM; to `CNC(=O)c1c(C)oc2cc(Oc3ccnc4cc(OCC5OCCO5)ccc34)ccc12` [Example 83, 6-{[7-(1,3-dioxolan-2-ylmethoxy)quinolin-4-yl]oxy}-N,2-dimethyl-1-benzofuran-3-carboxamide], < 1 nM. Next, `COc1ccc2c(Oc3ccc4c(C(=O)NC[C@@H]5CCCO5)c(C)oc4c3)ccnc2c1` [Example 85, 6-[(7-methoxyquinolin-4-yl)oxy]-2-methyl-N-[(2S)-tetrahydrofuran-2-ylmethyl]-1-benzofuran-3-carboxamide]: > 10 nM; `COCC(C)NC(=O)c1c(C)oc2cc(Oc3ccnc4cc(OC)ccc34)ccc12` (centres unmarked) [Example 87, 6-[(7-methoxyquinolin-4-yl)oxy]-2-methyl-N-[2-methoxy-1-methyl-ethyl]-1-benzofuran-3-carboxamide]: > 10 nM; `Cc1oc2cc(Oc3ccnc4cc(-c5ncccn5)ccc34)ccc2c1C(=O)NC1CC1` [Example 89, N-cyclopropyl-2-methyl-6-[(7-pyrimidin-2-ylquinolin-4-yl)oxy]-1-benzofuran-3-carboxamide]: < 1 nM. To `CNCCOc1ccc2c(Oc3ccc4c(C(=O)NC5CC5)c(C)oc4c3)ccnc2c1` [Example 90, N-cyclopropyl-2-methyl-6-({7-[2-(methylamino)ethoxy]quinolin-4-yl}oxy)-1-benzofuran-3-carboxamide] belongs < 1 nM.
